Data as given in patent US4045556A, “Dipeptide derivatives, process for manufacture and pharmaceutical preparations” (priority 1974, dated 1977).

Assays:
Format in all cases: in vivo
thyrotropin release = thyrotropin release (endocrinological properties), standard tests; settings: comparison with TRH
Description: The endocrinological properties of typical compounds of the invention, such as L-2-oxo-imidazolidine-4-carbonyl-L-histidyl-L-prolinamide-dihydrate (Compound A) and of orotyl-L-histidyl-L-prolinamide-dihydrate (Compound B) are compared to that of TRH, the thyrotropin-releasing hormone.

[1] = system: lowering of body temperature caused by reserpine in mice; assay: body temperature test (reserpine hypothermy); parameters: sum of the differences between the measured values and the initial temperature: unit not given here; settings: for sum of the differences between the measured values and the initial temperature: reserpine 8 mg/kg i.p. 24 h before, rectal temperature every 20 min over 3 h; for effectiveness in counteracting the lowering of body temperature caused by reserpine, compared with TRH: result in words
Procedure: A series of standard tests were run.
Mice are intraperitoneally injected with 8 mg of reserpine per kilogram of body weight with a solution of reserpine, in 5% of ascorbic acid. After twenty-four hours the temperature of the animal has considerably dropped to a temperature, hereinafter designated as the "initial temperature", which is the reference temperature against which the effect of the compounds is measured. Then the test substance is injectd intraperitoneally. Thereafter, every twenty minutes, the temperature (rectal) is recorded over three hours. The sum of the differences between the measured values and the initial temperature are noted. These are reported below for different dosages.

[2] = system: reserpine-pretreated mice (hypomobility); assay: test of motility (reserpine hypomotility); parameters: motility measurement: unit not given here; settings: for motility measurement: mice, reserpine 5 mg/kg i.p. 10-20 h before, photocell activity cage; for stimulation of the mobility of animals: reserpine-pretreated mice, result in words
Procedure: Test mice were injected ten to twenty hours before the experiment with 5 mg of reserpine per kilogram of body weight, intraperitoneally. The animals developed until the beginning of the experiment a marked hypomobility. The test substances (TRH, A, B and C) are then injected intraperitoneally to groups of ten mice. Another group of ten mice pretreated with reserpine only acted as control group. The movement and activity of the animals are determined, measured and registered, the animals being confined in a photocell activity cage.
The average motility measurement for the reserpine pretreated control animals is 14.2, the untreated mice is 123.

[3] = system: toxicity of amphetamine in mice; assay: amphetamine group toxicity (mortality rate); settings: 15 min later amphetamine 7 mg/kg
Procedure: It is known that the toxicity of amphetamine is increased by administration of anti-depressive compounds, especially those that have a central nervous system stimulating activity, this activity being evidenced by an increased mortality in the test.
The test substances were intraperitoneally injected and fifteen minutes later the test animals were administered amphetamine in a dose of 7 mg per kilogram. […] Those animals which were treated only with amphetamine, as control, were still all alive at that time.

[4] = system: central nervous system of test animals; assay: central stimulation action in pharmacological tests; settings: equal doses of TRH and compound
Description: The compounds of formula I may be administered orally or parenterally. Their effects are observed quickly. For instance, on parenteral administration the effects occur already after ten minutes.
The most remarkable effects of the new products indicated in pharmacological tests is a central stimulation action.

mice = assay: LD50 in mice
Procedure: (§1) For instance with Substance B the following values of the LD50 were determined: […]

rats [5] = assay: LD50 in rats
Procedure: as §1

rats [6] = assay: wet dog shaking test; settings: 25 mg/kg i.p.
Procedure: The stimulant activity of Compound B is also shown in the "wet dog shaking" test of rats (standard test listed below).
Compound B was injected intraperitoneally and the animal activity is periodically observed. The effect of the substance is measured by the average number of shaking movements per minute. The dosage applied is 25 mg of substance/kilogram of body weight.

SMILES | dose required relative to TRH to obtain an equally marked thyrotropin release (thyrotropin release) | sum of the differences between the measured values and the initial temperature ([1]; substance 2 mg/kg i.p.) | sum of the differences between the measured values and the initial temperature ([1]; substance 5 mg/kg i.p.) | sum of the differences between the measured values and the initial temperature ([1]; substance 10 mg/kg i.p.) | sum of the differences between the measured values and the initial temperature ([1]; substance 20 mg/kg i.p.) | effectiveness in counteracting the lowering of body temperature caused by reserpine, compared with TRH [1] | motility measurement ([2]; substance 3 mg/kg i.p.) | motility measurement ([2]; substance 5 mg/kg i.p.) | motility measurement ([2]; substance 10 mg/kg i.p.) | stimulation of the mobility of animals [2] | number of dead mice (in percent) sixty minutes after amphetamine ([3]; substance 10 mg/kg i.p.) | number of dead mice (in percent) sixty minutes after amphetamine ([3]; substance 20 mg/kg i.p.) | number of dead mice (in percent) sixty minutes after amphetamine ([3]; substance 50 mg/kg i.p.) | number of dead mice (in percent) sixty minutes after amphetamine ([3]; substance 100 mg/kg i.p.) | number of dead mice (in percent) sixty minutes after amphetamine ([3]; substance 200 mg/kg i.p.) | average number of shaking movements per minute (rats [6]; 15 minutes after application) | average number of shaking movements per minute (rats [6]; 30 minutes after application) | other results
NC(=O)[C@@H]1CCCN1C(=O)[C@H](Cc1c[nH]cn1)NC(=O)C1CNC(=O)N1.O.O (stereo partly drawn) [Compound A, L-2-oxo-imidazolidine-4-carbonyl-L-histidyl-L-prolinamide-dihydrate] | ten-times greater dose than TRH | 20.8 | 26.1 | 32.8 | 40.1 | marketly more effective than TRH | 17.0 | 21.7 | 94.1 | stimulate the mobility of animals | 15% | 40% | 60% | 50% | 85% | – | – | –
NC(=O)[C@@H]1CCCN1C(=O)[C@H](Cc1c[nH]cn1)NC(=O)c1cc(=O)[nH]c(=O)[nH]1.O.O [Compound B, orotyl-L-histidyl-L-prolinamide-dihydrate] | ten-times greater dose than TRH | 34.6 | 42.3 | 55.3 | 67.1 | marketly more effective than TRH | 98.0 | 106.0 | 104.0 | stimulate the mobility of animals | 70% | 55% | 75% | 90% | 80% | 5.25 | 3.8 | duration of effect relative to TRH [4]: several times longer; strength of stimulating effect on the central nervous system relative to TRH [4]: about five times stronger; LD50 (mice; intramuscularly): > 4000 mg/kg; LD50 (mice; intraveneously): 1200 mg/kg; LD50 (mice; orally): > 1000 mg/kg; LD50 (rats [5]; intramuscularly): > 4000 mg/kg; LD50 (rats [5]; intraveneously): 1000 mg/kg; LD50 (rats [5]; orally): > 1000 mg/kg; average number of shaking movements per minute (rats [6]; 45 minutes after application): 3.2; average number of shaking movements per minute (rats [6]; 60 minutes after application): 2.15; average number of shaking movements per minute (rats [6]; 75 minutes after application): 2.1; average number of shaking movements per minute (rats [6]; 90 minutes after application): 1.55; average number of shaking movements per minute (rats [6]; 105 minutes after application): 1.05; average number of shaking movements per minute (rats [6]; 120 minutes after application): 0.6; average number of shaking movements per minute (rats [6]; 135 minutes after application): 0.3; duration of action compared with TRH (rats [6]; result in words): longer acting than TRH
NC(=O)[C@@H]1CCCN1C(=O)[C@H](Cc1c[nH]cn1)NC(=O)C1CSCC(=O)N1.O (stereo partly drawn) [Compound C, L-5-oxo-thiomorpholine-3-carbonyl-L-histidyl-L-prolinamide-hydrate] | – | – | – | – | – | – | 51.0 | 72.0 | 69.0 | stimulate the mobility of animals | 60% | 70% | 70% | 70% | 90% | – | – | –
NC(=O)[C@@H]1CCCN1C(=O)[C@H](Cc1c[nH]cn1)NC(=O)[C@@H]1CCC(=O)N1 [TRH, pyroglutamyl-histidyl-proline amide, reference compound] | – | 18.4 | 16.5 | 27.9 | 32.8 | – | 0.9 | 1.2 | 44.0 | – | 20% | 25% | 55% | 65% | 65% | 2.9 | 1.0 | –
